Measurements reported in PubChem BioAssay AID330 (DTP/NCI, 2004).
Values joined by “and” are separate entries in the source; they are usually repeats but may differ in a detail not shown here. Equal entries are not always repeated. Inconclusive results and toxic doses are left out. Rule for the calls: active = survival T/C of 150% or more; inactive = T/C below 125% in these data.

Tested on: P388 leukemia ip, CD2F1 mice, survival T/C
Test: NCI In Vivo Anticancer Drug Screen. Data for tumor model P388 Leukemia (intraperitoneal) in CD2F1 (CDF1) mice
Details: endpoint: median survival time, higher = longer survival
Summary of the method: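 Mice carrying the transplanted tumor received test compound or vehicle. Survival was recorded in each group, and the value is the treated-group measurement divided by that of the vehicle-treated control group.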

[1] = dose: 50.0 mg/kg/injection, schedule: Q01DX005 (ip), vehicle: saline with Tween-80
[2] = dose: 100.0 mg/kg/injection, schedule: Q01DX005 (ip), vehicle: saline with Tween-80
[3] = dose: 200.0 mg/kg/injection, schedule: Q01DX005 (ip), vehicle: saline with Tween-80
[4] = dose: 60.0 mg/kg/injection, schedule: Q01DX005 (ip), vehicle: saline with Tween-80
[5] = dose: 120.0 mg/kg/injection, schedule: Q01DX005 (ip), vehicle: saline with Tween-80
[6] = dose: 240.0 mg/kg/injection, schedule: Q01DX005 (ip), vehicle: saline with Tween-80
[7] = dose: 50.0 mg/kg/injection, schedule: Q01DX005 (ip), vehicle: saline
[8] = dose: 100.0 mg/kg/injection, schedule: Q01DX005 (ip), vehicle: saline
[9] = dose: 200.0 mg/kg/injection, schedule: Q01DX005 (ip), vehicle: saline
[10] = dose: 100.0 mg/kg/injection, schedule: Q01DX001 (ip), vehicle: Klucel (hydroxypropylcellulose) (HPC)
[11] = dose: 50.0 mg/kg/injection, schedule: Q01DX009 (ip), vehicle: Klucel (hydroxypropylcellulose) (HPC)
[12] = dose: 200.0 mg/kg/injection, schedule: Q01DX001 (ip), vehicle: Klucel (hydroxypropylcellulose) (HPC)
[13] = dose: 400.0 mg/kg/injection, schedule: Q01DX001 (ip), vehicle: Klucel (hydroxypropylcellulose) (HPC)
[14] = dose: 100.0 mg/kg/injection, schedule: Q04DX002 (ip), vehicle: saline with Tween-80
[15] = dose: 200.0 mg/kg/injection, schedule: Q04DX002 (ip), vehicle: saline with Tween-80
[16] = dose: 50.0 mg/kg/injection, schedule: Q01DX009 (ip), vehicle: saline
[17] = dose: 100.0 mg/kg/injection, schedule: Q01DX009 (ip), vehicle: saline
[18] = dose: 200.0 mg/kg/injection, schedule: Q01DX009 (ip), vehicle: saline

Measured: T/C

CC(CCC(=O)O)(c1ccc(OC(=O)Nc2ccc([N+](=O)[O-])cc2)cc1)c1ccc(OC(=O)Nc2ccc([N+](=O)[O-])cc2)cc1
inactive: [1] 111 % of control | [2] 96 % of control | [3] 93 % of control

CNC(=O)N(C)C(C)=O
inactive: dose: 100.0 mg/kg/injection, schedule: Q04DX003 (ip), vehicle: saline 123 % of control and 94 % of control | dose: 200.0 mg/kg/injection, schedule: Q04DX003 (ip), vehicle: saline 99 % of control and 124 % of control

Nc1nnc(SCCCCCCSc2nnc(N)s2)s1
inactive: [1] 86 % of control | [2] 86 % of control

C=C(C(=O)OC)C1C=CCC1 (configuration not stated)
inactive: dose: 12.5 mg/kg/injection, schedule: Q01DX009 (ip), vehicle: distilled water + Tween-80 100 % of control | dose: 25.0 mg/kg/injection, schedule: Q01DX009 (ip), vehicle: distilled water + Tween-80 100 % of control | dose: 50.0 mg/kg/injection, schedule: Q01DX009 (ip), vehicle: distilled water + Tween-80 111 % of control | dose: 100.0 mg/kg/injection, schedule: Q01DX009 (ip), vehicle: distilled water + Tween-80 101 % of control | dose: 200.0 mg/kg/injection, schedule: Q01DX009 (ip), vehicle: distilled water + Tween-80 86 % of control

O=S(=O)(Nc1ccc(Cl)c(C(F)(F)F)c1)c1ccc(F)cc1
inactive: [1] 100 % of control | [2] 91 % of control | [3] 98 % of control

O=S(=O)(Nc1ccn(-c2ccccc2)n1)c1ccc(NCc2c3ccccc3nc3cc(Cl)ccc23)cc1
inactive: [4] 99 % of control | [5] 91 % of control | [6] 93 % of control

COC(=O)C(C)CP(=O)(OC)OC (configuration not stated)
inactive: [7] 99 % of control | [8] 97 % of control | [9] 99 % of control

O=c1[nH]c2nc3ccccc3n2nc1-c1ccccc1
inactive: [10] 89 % of control

CN(C)CCOc1ccc(/C=C2\CCc3ccccc3C2=O)cc1
inactive: [4] 97 % of control | [5] 94 % of control | [6] 95 % of control

O=C(O)c1cccc2c1C(=O)c1ccccc1-2
inactive: dose: 50.0 mg/kg/injection, schedule: Q01DX005 (ip), vehicle: Klucel (hydroxypropylcellulose) (HPC) 95 % of control | dose: 100.0 mg/kg/injection, schedule: Q01DX005 (ip), vehicle: Klucel (hydroxypropylcellulose) (HPC) 100 % of control | dose: 200.0 mg/kg/injection, schedule: Q01DX005 (ip), vehicle: Klucel (hydroxypropylcellulose) (HPC) 105 % of control

COc1ccc2nc(-n3[nH]c(C)c(-c4cc(C)[nH]n4)c3=O)cc(C)c2c1
inactive: [1] 91 % of control | [2] 91 % of control | [3] 90 % of control

O=c1[nH]cc(S)c(=O)[nH]1
inactive: dose: 25.0 mg/kg/injection, schedule: Q01DX009 (ip), vehicle: saline with Tween-80 105 % of control | dose: 50.0 mg/kg/injection, schedule: Q01DX009 (ip), vehicle: saline with Tween-80 100 % of control | dose: 50.0 mg/kg/injection, schedule: Q04DX003 (ip), vehicle: saline with Tween-80 100 % of control | dose: 100.0 mg/kg/injection, schedule: Q01DX009 (ip), vehicle: saline with Tween-80 110 % of control | dose: 100.0 mg/kg/injection, schedule: Q04DX003 (ip), vehicle: saline with Tween-80 100 % of control

Cc1ncc(CSC(=N)N)n1Cc1ccccc1
inactive: dose: 8.5 mg/kg/injection, schedule: Q01DX009 (ip), vehicle: saline 115 % of control

OC1(c2cccc(Cl)c2)C2=NCCCN2c2ccccc21 (configuration not stated)
inactive: dose: 6.25 mg/kg/injection, schedule: Q01DX009 (ip), vehicle: saline with Tween-80 95 % of control | dose: 12.5 mg/kg/injection, schedule: Q01DX009 (ip), vehicle: saline with Tween-80 91 % of control

CC(=O)NC1C(OC(C)=O)OC(C[Se][As](C)C)C(OC(C)=O)C1OC(C)=O (configuration not stated)
inactive: [11] 105 % of control | dose: 100.0 mg/kg/injection, schedule: Q01DX009 (ip), vehicle: Klucel (hydroxypropylcellulose) (HPC) 110 % of control

C/C=C/C(=O)Sc1ccccc1
inactive: dose: 12.5 mg/kg/injection, schedule: Q01DX009 (ip), vehicle: Klucel (hydroxypropylcellulose) (HPC) 108 % of control | dose: 25.0 mg/kg/injection, schedule: Q01DX009 (ip), vehicle: Klucel (hydroxypropylcellulose) (HPC) 105 % of control | [11] 101 % of control and 105 % of control

CCOP(O)(=S)OCC.[Ho]
inactive: [10] 91 % of control | [12] 88 % of control | [13] 90 % of control

Cc1nc2c([N+](=O)[O-])c(N3CCCCC3)c([N+](=O)[O-])cc2[nH]1
inactive: [14] 101 % of control | [15] 104 % of control

CCOP(=S)(Nc1ccc(F)cc1F)OCC
inactive: [14] 113 % of control | [15] 95 % of control

Cn1nc(C(=O)O)c(=O)[nH]c1=O
inactive: [7] 98 % of control | [8] 95 % of control | [9] 98 % of control

Cc1ccc(OP(=O)(Oc2ccc(C)cc2)Oc2ccc(C)cc2)cc1.Cc1ccc(OP(=O)(Oc2ccc(C)cc2)Oc2ccc(C)cc2)cc1.Cc1ccc(OP(=O)(Oc2ccc(C)cc2)Oc2ccc(C)cc2)cc1.Cc1ccc(OP(=O)(Oc2ccc(C)cc2)Oc2ccc(C)cc2)cc1.[Co+2].[O-][Cl+3]([O-])([O-])O
inactive: [10] 99 % of control | [12] 97 % of control | [13] 97 % of control

CCCCCCCCCCCCSSSCCCCCCCCCCCC
inactive: [16] 106 % of control | [17] 97 % of control | [18] 99 % of control and 87 % of control

CC(=O)Oc1cccnc1
inactive: dose: 50.0 mg/kg/injection, schedule: Q01DX006 (ip), vehicle: saline 106 % of control | [16] 100 % of control | dose: 100.0 mg/kg/injection, schedule: Q01DX006 (ip), vehicle: saline 100 % of control | [17] 96 % of control | dose: 200.0 mg/kg/injection, schedule: Q01DX006 (ip), vehicle: saline 100 % of control | [18] 95 % of control | dose: 400.0 mg/kg/injection, schedule: Q01DX006 (ip), vehicle: saline 100 % of control | dose: 400.0 mg/kg/injection, schedule: Q01DX009 (ip), vehicle: saline 95 % of control | dose: 600.0 mg/kg/injection, schedule: Q01DX006 (ip), vehicle: saline 100 % of control | dose: 600.0 mg/kg/injection, schedule: Q01DX009 (ip), vehicle: saline 94 % of control | dose: 800.0 mg/kg/injection, schedule: Q01DX006 (ip), vehicle: saline 99 % of control | dose: 800.0 mg/kg/injection, schedule: Q01DX009 (ip), vehicle: saline 95 % of control

CC/C(=C1/C=C(O)C(=O)C=C1OC)c1ccc(OC)cc1
inactive: dose: 2.5 mg/kg/injection, schedule: Q01DX009 (ip), vehicle: saline + alcohol 100 % of control | dose: 5.0 mg/kg/injection, schedule: Q01DX009 (ip), vehicle: saline + alcohol 101 % of control | dose: 10.0 mg/kg/injection, schedule: Q01DX009 (ip), vehicle: saline + alcohol 103 % of control

N=C(N)c1ccc(N=Nc2c(O)ccc3c2[nH]c2ccccc23)cc1
inactive: [1] 101 % of control | [2] 98 % of control | [3] 106 % of control

CCOC(=O)c1c(C#N)c2cnn(-c3ccccc3)c2n2cccc12
inactive: dose: 15.0 mg/kg/injection, schedule: Q01DX005 (ip), vehicle: saline with Tween-80 98 % of control | dose: 30.0 mg/kg/injection, schedule: Q01DX005 (ip), vehicle: saline with Tween-80 96 % of control | [4] 86 % of control and 91 % of control

CC[N+]1([O-])CCOCC1
inactive: [16] 97 % of control | [17] 101 % of control | [18] 113 % of control

c1ccc(C2=C(c3ccccc3)c3ccccc3CO2)cc1
inactive: dose: 100.0 mg/kg/injection, schedule: Q01DX001 (ip), vehicle: saline 105 % of control | dose: 200.0 mg/kg/injection, schedule: Q01DX001 (ip), vehicle: saline 100 % of control | dose: 400.0 mg/kg/injection, schedule: Q01DX001 (ip), vehicle: saline 100 % of control
